These results are taken from patent US6140338A, “Chemokine receptor antagonists” (Banyu Pharmaceutical, Co., Ltd., priority 1996, dated 2000).

The target in test [1] is T1, human chemokine receptor CCR1 (Homo sapiens, UniProt P32246).
T1 construct: expressed in transfected cells
T1 sequence (P32246 1-355): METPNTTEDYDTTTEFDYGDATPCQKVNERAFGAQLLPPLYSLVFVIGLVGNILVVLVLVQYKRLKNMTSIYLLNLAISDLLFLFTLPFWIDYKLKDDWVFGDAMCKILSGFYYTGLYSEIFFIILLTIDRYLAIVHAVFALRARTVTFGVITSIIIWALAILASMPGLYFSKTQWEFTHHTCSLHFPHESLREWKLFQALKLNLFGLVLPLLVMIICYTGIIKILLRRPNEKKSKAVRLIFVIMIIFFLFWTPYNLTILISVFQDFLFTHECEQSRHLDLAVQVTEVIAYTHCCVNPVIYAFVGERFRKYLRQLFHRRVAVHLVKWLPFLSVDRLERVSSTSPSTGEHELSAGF
Put plainly: Inhibitory activity against binding to the chemokine receptor CCR1 ([125I]MIP-1 alpha binding, CHO cells). The following applies: 50 pM [125I]MIP-1 alpha, 90 minutes, 37° C, pH 7.4, CHO cells expressing CCR1; read-out: 50% inhibitory concentration (IC50 value) against [125I]MIP-1 alpha binding. How it is done:
cDNAs which code human chemokine receptor CCR1 was subcloned to Hind III/Xba I part of the expression vector pRc/CMV (Invitrogen) to prepare pRc/CMV CCR1. Then, pRc/CMV CCR1 was transfected to CHO cells by using lipofectamine (GIBCO) to obtain a stable cell strain resistant against 0.5 mg/ml of G418.
The stable cell strain, 50 pM[^125 I]MIP-1 alpha (2000 Ci/mmol, manufactured by New England Nuclear) and a test compound were suspended in 0.2 ml of Krebs-Ringer/0.1% bovine serum albumin/0.1% glucose (pH 7.4), and incubated for 90 minutes at a temperature of 37° C. Then, it was subjected to filtration by means of a glass filter GF/C which was preliminarily impregnated in 1% of polyethyleneimine, and washed with 1 ml of Krebs-Ringer/0.1% bovine serum albumin/0.1% glucose (pH 7.4), whereby radio activity on the glass filter was measured. The binding affinity to the chemokine receptors CCR1 was shown as a 50% inhibitory concentration (IC50 value) of the compound of the present invention against [^125 I]MIP-1 alpha binding.

In test [2] the target is T2, chemokine receptor CCR3 (Homo sapiens, UniProt P51677).
T2 construct: expressed in transfected cells
T2 sequence (P51677 1-355): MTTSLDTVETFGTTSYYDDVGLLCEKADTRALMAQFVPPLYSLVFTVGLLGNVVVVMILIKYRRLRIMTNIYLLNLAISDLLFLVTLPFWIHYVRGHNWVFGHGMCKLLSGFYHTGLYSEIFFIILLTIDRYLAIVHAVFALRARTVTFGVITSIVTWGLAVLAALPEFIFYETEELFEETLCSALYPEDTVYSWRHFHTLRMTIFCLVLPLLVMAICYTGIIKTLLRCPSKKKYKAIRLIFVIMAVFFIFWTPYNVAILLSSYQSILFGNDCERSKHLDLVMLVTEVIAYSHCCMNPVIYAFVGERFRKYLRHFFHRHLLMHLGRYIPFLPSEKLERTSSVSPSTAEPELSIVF
Put plainly: Inhibitory activity against binding to the chemokine receptor CCR3 ([125I]Eotaxin binding, CHO cells). The following applies: 50 pM [125I]Eotaxin, 90 minutes, 37° C, pH 7.4, CHO cells expressing CCR3; read-out: 50% inhibitory concentration (IC50 value) against [125I]Eotaxin binding. The procedure: Further, an expression vector of a gene which codes chemokine receptor CCR3 was transfected to CHO cell by using lipofectamine to obtain a stable cell strain resistant against 0.5 mg/ml of G418. The stable cell strain, 50 pM[^125 I]Eotaxin (2000 Ci/mmol, manufactured by Amersham) and a test compound were suspended in 0.2 ml of Krebs-Ringer/0.1% bovine serum albumin/0.1% glucose (pH 7.4) and incubated for 90 minutes at a temperature of 37° C. Then, it was subjected to filtration by means of a glass filter GF/C which was preliminarily impregnated in 1% polyethyleneimine, and washed with 1 ml of Krebs-Ringer/0.1% bovine serum albumin/0.1% glucose (pH 7.4), whereby radio activity on the glass filter was measured. The binding affinity to the chemokine receptors CCR3 was shown as a 50% inhibitory concentration (IC50 value) of the compounds of the present invention against [^125 I]Eotaxin binding.

The subject of test [3] is CCR3. Put plainly: CCR3 antagonist activities (Eotaxin-induced intracellular calcium increase in human eosinophils). The test is classed as cell-based. The following applies: 41 nM compound 5 minutes before agonist Eotaxin (10 nM), Fura2. The procedure: By using human eosinophil which stably express CCR3, the activity of the compounds of the present invention to intracellular calcium concentration was measured by the following method. […] of Fura2 acetoxymethyl ester (produced by Dojin Kagaku Laboratories) was added to eosinophils and incubated for 30 minutes at a temperature of 37° C. Then, the mixture was excited by irradiation with light at 340 nm and 380 nm, fluorescence at 500 nm was measured, 340/380 ratio was monitored, thereby intracellular calcium concentration was calculated.

Test [4] concerns chemokine receptor CCR1. Put plainly: Activities to intracellular cyclic AMP concentration (CHO cells stably expressing CCR1). The test is classed as cell-based, human. How it is done: By using CHO cells which stably express the chemokine receptor CCR1, the activity of the test compounds to intracellular cyclic AMP concentration had been studied.
The CHO cells was suspended in Locke's solution (pH 7.4:154 mM of sodium chloride, 5.6 mM of potassium chloride, 2 mM of calcium chloride, 1 mM of magnesium chloride, 0.1% glucose, 10 mM of Hepes and 0.3 mM of isobutylmethylxanthine), and preliminarily incubated at a temperature of 37° C. for 5 minutes, and 100 nM of hMIP-1 alpha and 0.01 mM of Forskolin were added thereto. The reaction was kept for 10 minutes and terminated by adding trichloroacetic acid. The reaction mixture was centrifuged at 15000 rpm for 5 minutes and supernatant was obtained. Trichloroacetic acid in the supernatant was removed by extraction with diethyl ether, and the supernatant was evaporated to dryness by centrifugal evaporator. The cyclic AMP concentration in the sample thus obtained was measured by cyclic AMP kit (produced by Amersham). The activity of test compounds to the cyclic AMP concentration was obtained by studying antagonism against hMIP-1 alpha by adding 0.01 mM of the test compounds 5 minutes before adding 100 nM of hMIP-1 alpha.

Setting [5] is: control reactions: 0.01 mM Forskolin solely, or with 100 nM hMIP-1 alpha, no test compound.

In the case of `O=C(NC1CCN(CC2=CCCCCCCC2)CC1)C1c2ccccc2Oc2ccccc21` [Example 61 (named cis for convenience)], the IC50 was determined as 1.8 nM in test [1] and 1.7 nM in test [2].
For `CC[N+]1(CC2=CCCCCCC2)CCC(NC(=O)C2c3cc(Cl)ccc3Oc3ccc(Cl)cc32)CC1` (stereo not drawn) [Example 59 (named cis for convenience), cis*-1-(1-cyclooctenylmethyl)-1-ethyl-4-(2,7-dichloroxanthene-9-carboxamido)piperidinium iodide], in test [3], the “inhibitory ratio (%) of increase in the concentration of intracellular calcium” value came to 97%.
On to `CC[N+]1(CC2=CCCCCCC2)CCC(NC(=O)C2c3cc(Cl)ccc3Oc3ccc(Cl)cc32)CC1` (stereo not drawn) [Example 62 (named cis for convenience), cis*-1-(1-cyclooctenylmethyl)-1-ethyl-4-(2,7-dichloroxanthene-9-carboxamido)piperidinium bromide], for which the IC50 in test [1] was 1.8 nM; in test [2] it was 0.74 nM.
As to `CC[N+]1(CC2CCCCCCC2)CCC(NC(=O)C2c3cc(Br)ccc3Oc3ccc(Br)cc32)CC1` (single isomer, unassigned) [Example 26 (named cis for convenience), cis*-1-cyclooctylmethyl-1-ethyl-4-(2,7-dibromoxanthene-9-carboxamido)piperidinium iodide], the figures for the IC50 in test [1] and in test [2] were 1.9 nM and 2.7 nM, respectively. Besides, the “inhibitory ratio (%) of increase in the concentration of intracellular calcium” value in test [3] came to 51%.
As to `C=C[C@@]1(C)CC(=O)[C@]2(O)[C@@]3(C)[C@@H](O)CCC(C)(C)[C@@H]3[C@H](O)[C@H](OC(C)=O)[C@@]2(C)O1` [Forskolin, reference compound], the cAMP concentration in test [4] (setting [5]) is on record as 67.8 +/- 8.4 pmol/10^6 cells.
With `C[N+]1(CC2CCCCCCC2)CCC(NC(=O)C2c3cc(Br)ccc3Oc3ccc(Br)cc32)CC1` (stereo not drawn) [Example 22, 1-cyclooctylmethyl-1-methyl-4-(2,7-dibromoxanthene-9-carboxamido)piperidinium iodide], the IC50 in test [1] was found to be 3.9 nM; in test [2], 13 nM.
As to `CC[N+]1(CC2CCCCCCC2)CCC(NC(=O)C2c3ccccc3Oc3ccccc32)CC1.[I-]` (stereo not drawn) [Example 12, 1-cyclooctylmethyl-1-ethyl-4-(xanthene-9-carboxamido)piperidinium iodide], the IC50 in test [1] came out at 5.2 nM; in test [2], 40 nM. Further, in test [4] (0.01 mM Forskolin + 100 nM hMIP-1 alpha + 0.01 mM test compound added 5 minutes before hMIP-1 alpha), the cAMP concentration is reported as 81.6 +/- 4.2 pmol/10^6 cells.

B1: hMIP - 1 alpha: chemokine (polypeptidic leukocytic migration factor), agonist used at 100 nM (protein, UniProt P10147 24-92, looked up)
C-C motif chemokine 3: SLAADTPTACCFSYTSRQIPQNFIADYFETSSQCSKPGVIFLTKRSRQVCADPSEEWVQKYVSDLELSA
For B1, the cAMP concentration in test [4] (setting [5]) is given as 47.7 +/- 4.2 pmol/10^6 cells.
